Test results reported in US20100204243A1, “Process for the Preparation of Poly DL-Lactide-Co-Glycolide Nanoparticles Having Antitubercular Drugs Encapsulated Therein” (priority 2005, published 2010).
In brackets after ≈: the same amount, converted by molar mass.

Columns and labels:
[1] = Stability of ethambutol in the presence of isoniazid; assay type: physicochemical
Description: 765/Del/2003. However, a disadvantage associated therewith is that due to its unstability properties, ethambutol would degrade.

M. tuberculosis = conditions: cited from earlier work

In the case of CC[C@@H](CO)NCCN[C@@H](CC)CO [ethambutol], the “stability in the presence of isoniazid” value [1] is listed as “highly unstable” and the “minimum inhibitory concentration (MIC)” value (M. tuberculosis) is listed as 1.5 µg/mL (≈ 7.34 µM).
